Measurements: patent US4246282A, “ω-Dialkylalkanoic acid derivatives used to induce antianoxic activity” (Labaz, priority 1979, dated 1981)

Legend:
[1] = Pentylenetetrazol seizure; type: in vivo, mice; conditions: Mus musculus, 0.25 h
[2] = Anoxia in confined space (period of survival); type: in vivo, mice
Method: Batches of 15 male mice were treated with a dose of a compound to be studied. After that, each animal was placed in a hermetically sealed box of 200 cm^3. The animal was considered to be dead when it had stopped breathing.
The increase in the period of survival was then noted in % in comparison with the controls. […]

[3] = rota rod test (neurotoxicity, coordination of movements on a turning rod)
Method: This test enables the animal's ability to coordinate its movements on a turning rod to be evaluated. […] (a) 15 min. after administration of 500 mg/kg by oral route:

[4] = β-Mercaptopropionic acid seizure (protection against the tonic seizure); type: in vivo, mice; conditions: Mus musculus, 0.25 h
Method: β-Mercaptopropionic acid is an inhibitor of glutamate decarboxylase (G.A.D.), an enzyme which catalyses the transformation of glutamate into γ-aminobutyric acid (GABA). As a consequent of this, a decrease in the GABA lever occurs together with generalized tonico-clonic seizures 3 to 4 minutes after administration.
In the present test, β-mercaptopropionic acid was administered intraperitoneally to batches of 10 male mice, at a dose of 70 mg/kg, 30 minutes after oral administration of a dose of the compound to be studied. The percentage of animals protected against the tonic seizure was registered 15 minutes after administration of the β-mercaptopropionicacid.

[5] = 15 min. after administration of 500 mg/kg by oral route
[6] = 30 min. after administration of 500 mg/kg by oral route
[7] = 30 min. after administration of 100 mg/kg by intraperitoneal route
[8] = 15 min. after administration of 100 mg/kg by intraperitoneal route

CCCC(CCC)C(N)=O [di-n-propylacetamide]
ED50 ([1]; mice, oral route, registered 15 minutes after pentylenetetrazol, read-out: ED50): 46 mg/kg
increase in survival time ([2]; 50 mg/kg intraperitoneal): 12%
% of failures ([3]; 15 minutes after administration of 170 mg/kg by oral route): 50%

CCCC(CCC)CC(N)=O [3-n-propyl-hexanamide, 3-n-Propyl-hexanamide]
% of failures [3, 5]: 30%
% of failures [3, 6]: 10%

CCCC(CCC)CCCC(N)=O [5-n-propyl-octanamide, 5-n-Propyl-octanamide]
% of failures [3, 5]: 0%
% of failures [3, 7]: 50%

CCCC(CCC)CCC(=O)O [ONa, n = 1]
% of failures [3, 8]: 30%

CCCC(CCC)CCC(N)=O [4-n-propyl-heptanamide, 4-n-Propyl-heptanamide]
% of failures [3, 8]: 0%

CCCC(CCC)C(=O)[O-].[Na+] [sodium di-n-propylacetate]
ED50 ([4]; po, an other comparative test, read-out: ED50): 175 mg/kg
increase in survival time ([2]; 200 mg/kg intraperitoneal): 32%

CCCC(CCC)CCCC(=O)O [ONa, n = 2]
ED50 ([4]; male mice, oral, 30 min before β-mercaptopropionic acid 70 mg/kg i.p., registered 15 minutes after, read-out: ED50): 273 mg/kg
% of failures [3, 5]: 20%
% of failures [3, 7]: 100%

CCCC(CCC)CC(=O)[O-].[Na+]
ED50 ([4]; po): 168 mg/kg
ED50 ([1]; po): 95 mg/kg
% of failures [3, 5]: 30%
% of failures [3, 6]: 30%
